In article PMC8544188 (Molecular Diversity, 2021):
“Also recorded” adds a separate entry of the source.

Legend:
α-glucosidase [1] = target: T1, α-glucosidase (Saccharomyces cerevisiae, UniProt P53341); experiment: α-glucosidase inhibition assay; assay type: biochemical
α-glucosidase [2] = target: T1, α-glucosidase; experiment: Enzyme kinetic studies; assay type: biochemical; settings: Lineweaver–Burk plot: Km increased, Vmax unchanged

T1 sequence (P53341 whole entry): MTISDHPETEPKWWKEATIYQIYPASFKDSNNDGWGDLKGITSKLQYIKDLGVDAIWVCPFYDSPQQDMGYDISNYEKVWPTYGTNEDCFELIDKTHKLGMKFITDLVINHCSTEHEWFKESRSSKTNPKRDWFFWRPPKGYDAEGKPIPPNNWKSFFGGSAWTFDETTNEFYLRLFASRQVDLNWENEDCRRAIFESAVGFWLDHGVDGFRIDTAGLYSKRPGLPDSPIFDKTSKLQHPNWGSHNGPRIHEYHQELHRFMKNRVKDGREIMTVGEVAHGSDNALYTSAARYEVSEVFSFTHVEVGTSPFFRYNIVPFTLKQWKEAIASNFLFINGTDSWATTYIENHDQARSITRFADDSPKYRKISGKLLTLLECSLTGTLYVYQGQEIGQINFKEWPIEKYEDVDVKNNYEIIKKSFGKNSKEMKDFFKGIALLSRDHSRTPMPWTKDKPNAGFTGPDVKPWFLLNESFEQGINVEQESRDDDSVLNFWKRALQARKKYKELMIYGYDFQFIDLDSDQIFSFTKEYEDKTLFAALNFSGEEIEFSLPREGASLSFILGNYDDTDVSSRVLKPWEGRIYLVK

## N#CC(C(N)=O)c1c(-c2ccccc2)[nH]c2c1c(=O)oc1ccccc12 (stereo not shown) [4a, 2-cyano-2-(4-oxo-2-phenyl-1,4-dihydrochromeno[4,3-b]pyrrol-3-yl)acetamide]
α-glucosidase [1]; ratio of IC50 values versus acarbose
  fold improvement in inhibitory potency compared to acarbose (positive control): around fivefold

## COc1ccc(-c2[nH]c3c(c2CC#N)c(=O)oc2ccccc23)cc1 [5e, 2-(2-(4-methoxyphenyl)-4-oxo-1,4-dihydrochromeno[4,3-b]pyrrol-3-yl)acetonitrile]
α-glucosidase [2]
  mode of inhibition: competitive inhibition; also recorded: competitive inhibitor

## N#CCc1c(-c2ccccc2)[nH]c2c1c(=O)oc1ccc(Cl)cc12 [5b, 2-(8-chloro-4-oxo-2-phenyl-1,4-dihydrochromeno[4,3-b]pyrrol-3-yl)acetonitrile]
α-glucosidase [1]
  α-glucosidase inhibitory activity in words: diminished the inhibitory activity completely

## N#CCc1c(-c2ccc(Cl)cc2)[nH]c2c1c(=O)oc1ccccc12 [5d, 2-(2-(4-chlorophenyl)-4-oxo-1,4-dihydrochromeno[4,3-b]pyrrol-3-yl)acetonitrile]
α-glucosidase [1]; ratio of IC50 values versus 5a
  fold increase in potency compared to 5a: around fivefold
